Data reported in patent US12091411B2, “IRAK degraders and uses thereof” (Kymera Therapeutics, Inc., priority 2022, dated 2024).
Read-outs that look alike come from different tables or passages of the source.

Target: T1, IRAK4 (Homo sapiens, UniProt Q9NWZ3)
T1 construct: Degradation of IRAK4 in OCI-LY10 was quantitatively measured using Meso Scale Discovery technology; endogenous in cells; host or cells: OCI-LY10
T1 sequence (Q9NWZ3 1-460): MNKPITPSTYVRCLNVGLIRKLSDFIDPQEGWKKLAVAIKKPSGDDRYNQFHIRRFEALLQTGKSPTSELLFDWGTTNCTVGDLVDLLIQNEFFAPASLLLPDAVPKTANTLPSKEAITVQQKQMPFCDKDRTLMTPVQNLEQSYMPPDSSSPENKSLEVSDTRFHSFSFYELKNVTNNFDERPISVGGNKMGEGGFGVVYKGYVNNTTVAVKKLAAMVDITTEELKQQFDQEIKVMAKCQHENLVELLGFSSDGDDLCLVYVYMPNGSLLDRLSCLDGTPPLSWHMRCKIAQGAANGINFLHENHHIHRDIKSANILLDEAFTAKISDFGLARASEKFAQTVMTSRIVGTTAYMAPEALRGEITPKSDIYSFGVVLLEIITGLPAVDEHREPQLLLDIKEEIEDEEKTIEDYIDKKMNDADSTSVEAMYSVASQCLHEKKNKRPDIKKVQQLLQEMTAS
Assay: IRAK4 MSD Degradation in OCI-LY10
Format: cell-based
Settings: OCI-LY10 cells, MSD
How it was run: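 DC50, from a three-parameter logistic fit and reported as letter bins A (<0.01 μM), B, C, D (>0.2 μM or not tested), reflects IRAK4 loss measured by MSD electrochemiluminescence in OCI-LY10 lysates. Treatment: 8 doses, 1:3 steps, top 1 to 10 μM, 4 to 24 h, 37 °C.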

[1] = 4 hrs incubation, read-out: IRAK4 degradation in OCI-LY10 at 4 hrs: DC50
[2] = 24 hrs incubation, read-out: IRAK4 degradation in OCI-LY10 at 24 hrs: DC50

Row | DC50 [1] | DC50 [2] | Structure (SMILES)
1 | < 10 nM | > 200 nM | Cn1c(=O)n(C2CCC(=O)NC2=O)c2cccc(N3CCC(CN4CCN(C[C@H]5CC[C@H](n6cc(NC(=O)c7cnn8ccc(N9C[C@@H]%10C[C@H]9CO%10)nc78)c(C(F)F)n6)CC5)CC4)CC3)c21 (stereo partly shown) [I-158]
2 | < 10 nM | > 200 nM | Cn1c(=O)n(C2CCC(=O)NC2=O)c2cccc(N3CCC(OC4CCN(C[C@H]5CC[C@H](n6cc(NC(=O)c7cnn8ccc(N9C[C@@H]%10C[C@H]9CO%10)nc78)c(C(F)F)n6)CC5)CC4)CC3)c21 (stereo partly shown) [I-159]
3 | < 10 nM | < 10 nM | Cn1c(=O)n(C2CCC(=O)NC2=O)c2cccc(C#CCCC3CCN(CC4CCC(n5cc(NC(=O)c6cnn7ccc(C8C[C@H]9C[C@@H]8CO9)nc67)c(C(F)F)n5)CC4)CC3)c21 (stereo partly shown) [I-160]
4 | < 10 nM | > 200 nM | Cn1c(=O)n(C2CCC(=O)NC2=O)c2cccc(N3CCN(CC4CCN(C[C@H]5CC[C@H](n6cc(NC(=O)c7cnn8ccc(N9C[C@@H]%10C[C@H]9CO%10)nc78)c(C(F)F)n6)CC5)CC4)CC3)c21 (stereo partly shown) [I-161]
5 | < 10 nM | > 200 nM | Cn1c(=O)n(C2CCC(=O)NC2=O)c2cccc(C#CCCN3CCN(CC4CCC(n5cc(NC(=O)c6cnn7ccc(C8C[C@H]9C[C@@H]8CO9)nc67)c(C(F)F)n5)CC4)CC3)c21 (stereo partly shown) [I-162]
6 | < 10 nM | > 200 nM | Cn1c(=O)n(C2CCC(=O)NC2=O)c2cccc(N3CCN(CC4CCN(C[C@H]5CC[C@H](n6cc(NC(=O)c7cnn8ccc(N9C[C@H]%10C[C@@H]9CO%10)nc78)c(C(F)F)n6)CC5)CC4)CC3)c21 (stereo partly shown) [I-163]
7 | < 10 nM | > 200 nM | Cn1c(=O)n(C2CCC(=O)NC2=O)c2cccc(N3CCC(CN4CCN(C[C@H]5CC[C@H](n6cc(NC(=O)c7cnn8ccc(N9C[C@H]%10C[C@@H]9CO%10)nc78)c(C(F)F)n6)CC5)CC4)CC3)c21 (stereo partly shown) [I-164]
8 | < 10 nM | > 200 nM | Cn1c(=O)n(C2CCC(=O)NC2=O)c2cccc(N3CCC(OC4CCN(C[C@H]5CC[C@H](n6cc(NC(=O)c7cnn8ccc(N9C[C@H]%10C[C@@H]9CO%10)nc78)c(C(F)F)n6)CC5)CC4)CC3)c21 (stereo partly shown) [I-165]
9 | 10 to 100 nM | > 200 nM | Cn1c(=O)n(C2CCC(=O)NC2=O)c2cccc(C#CCOC3CCN(C[C@H]4CC[C@H](n5cc(NC(=O)c6cnn7ccc(N8C[C@H]9C[C@@H]8CO9)nc67)c(C(F)(F)F)n5)CC4)CC3)c21 (stereo partly shown) [I-166]
10 | > 200 nM | 10 to 100 nM | Cn1c(=O)n(C2CCC(=O)NC2=O)c2cccc(C#CCOC3CCN(C[C@H]4CC[C@H](n5cc(NC(=O)c6cnn7ccc(N8C[C@H]9C[C@@H]8CO9)nc67)c(Cl)n5)CC4)CC3)c21 (stereo partly shown) [I-167]
11 | > 200 nM | > 200 nM | Cc1nn([C@H]2CC[C@H](CN3CCC(OCC#Cc4cccc5c4n(C)c(=O)n5C4CCC(=O)NC4=O)CC3)CC2)cc1NC(=O)c1cnn2ccc(N3C[C@H]4C[C@@H]3CO4)nc12 (stereo partly shown) [I-168]
12 | > 200 nM | > 200 nM | COc1nn([C@H]2CC[C@H](CN3CCC(OCC#Cc4cccc5c4n(C)c(=O)n5C4CCC(=O)NC4=O)CC3)CC2)cc1NC(=O)c1cnn2ccc(N3C[C@H]4C[C@@H]3CO4)nc12 (stereo partly shown) [I-169]
13 | > 200 nM | 10 to 100 nM | Cc1ccc(-c2nn([C@H]3CC[C@H](CN4CCC(OCC#Cc5cccc6c5n(C)c(=O)n6C5CCC(=O)NC5=O)CC4)CC3)cc2NC(=O)c2cnn3cccnc23)nc1 (stereo partly shown) [I-170]
14 | > 200 nM | 10 to 100 nM | Cc1ccc(-c2nn([C@H]3CC[C@H](CN4CCC(OCC#Cc5cccc6c5n(C)c(=O)n6C5CCC(=O)NC5=O)CC4)CC3)cc2NC(=O)c2cnn3cccnc23)c(F)c1 (stereo partly shown) [I-171]
15 | > 200 nM | 10 to 100 nM | Cc1ccc(-c2nn([C@H]3CC[C@H](CN4CCC(OCC#Cc5cccc6c5n(C)c(=O)n6C5CCC(=O)NC5=O)CC4)CC3)cc2NC(=O)c2cnn3cccnc23)cc1 (stereo partly shown) [I-172]
16 | > 200 nM | 10 to 100 nM | Cc1ccc(-c2nn([C@H]3CC[C@H](CN4CCC(OCC#Cc5cccc6c5n(C)c(=O)n6C5CCC(=O)NC5=O)CC4)CC3)cc2NC(=O)c2cnn3cccnc23)nc1 (stereo partly shown) [I-173]
17 | > 200 nM | > 200 nM | Cn1c(=O)n(C2CCC(=O)NC2=O)c2cccc(C#CCOC3CCN(C[C@H]4CC[C@H](n5cc(NC(=O)c6cnn7ccc(N8C[C@H]9C[C@@H]8CO9)nc67)c(C(C)(C)O)n5)CC4)CC3)c21 (stereo partly shown) [I-174]
18 | > 200 nM | > 200 nM | Cn1c(=O)n(C2CCC(=O)NC2=O)c2cccc(C#CCOC3CCN(C[C@H]4CC[C@H](c5ccc(C(F)F)c(NC(=O)c6cnn7ccc(N8C[C@H]9C[C@@H]8CO9)nc67)c5)CC4)CC3)c21 (stereo partly shown) [I-175]

Row | DC50 [1] | DC50 [2] | Structure (SMILES)
19 | > 200 nM | > 200 nM | Cn1c(=O)n(C2CCC(=O)NC2=O)c2cccc(C#CCOC3CCN(CC4CCN(c5ccc(C(F)F)c(NC(=O)c6cnn7ccc(N8C[C@H]9C[C@@H]8CO9)nc67)c5)CC4)CC3)c21 (stereo partly shown) [I-176]
20 | > 200 nM | > 200 nM | COc1ccc([C@H]2CC[C@H](CN3CCC(OCC#Cc4cccc5c4n(C)c(=O)n5C4CCC(=O)NC4=O)CC3)CC2)cc1NC(=O)c1cnn2ccc(N3C[C@H]4C[C@@H]3CO4)nc12 (stereo partly shown) [I-177]
21 | > 200 nM | > 200 nM | Cn1c(=O)n(C2CCC(=O)NC2=O)c2cccc(C#CCOC3CCN(C[C@H]4CC[C@H](c5cnc(C(F)F)c(NC(=O)c6cnn7ccc(N8C[C@H]9C[C@@H]8CO9)nc67)c5)CC4)CC3)c21 (stereo partly shown) [I-178]
22 | > 200 nM | > 200 nM | Cn1c(=O)n(C2CCC(=O)NC2=O)c2cccc(C#CCOC3CCN(CC4CCN(c5cnc(C(F)F)c(NC(=O)c6cnn7ccc(N8C[C@H]9C[C@@H]8CO9)nc67)c5)CC4)CC3)c21 (stereo partly shown) [I-179]
23 | > 200 nM | > 200 nM | COc1ncc([C@H]2CC[C@H](CN3CCC(OCC#Cc4cccc5c4n(C)c(=O)n5C4CCC(=O)NC4=O)CC3)CC2)cc1NC(=O)c1cnn2ccc(N3C[C@H]4C[C@@H]3CO4)nc12 (stereo partly shown) [I-180]
24 | > 200 nM | > 200 nM | Cn1c(=O)n(C2CCC(=O)NC2=O)c2cccc(C#CCOC3CCN(C[C@H]4CC[C@H](c5ccc(NC(=O)c6cnn7ccc(N8C[C@H]9C[C@@H]8CO9)nc67)c(C(F)F)n5)CC4)CC3)c21 (stereo partly shown) [I-181]
25 | > 200 nM | > 200 nM | Cn1c(=O)n(C2CCC(=O)NC2=O)c2cccc(C#CCOC3CCN(C[C@H]4CC[C@H](c5ccc(NC(=O)c6cnn7ccc(N8C[C@H]9C[C@@H]8CO9)nc67)c(C(F)F)c5)CC4)CC3)c21 (stereo partly shown) [I-182]
26 | > 200 nM | > 200 nM | COc1nc([C@H]2CC[C@H](CN3CCC(OCC#Cc4cccc5c4n(C)c(=O)n5C4CCC(=O)NC4=O)CC3)CC2)ccc1NC(=O)c1cnn2ccc(N3C[C@H]4C[C@@H]3CO4)nc12 (stereo partly shown) [I-183]
27 | > 200 nM | > 200 nM | COc1cc([C@H]2CC[C@H](CN3CCC(OCC#Cc4cccc5c4n(C)c(=O)n5C4CCC(=O)NC4=O)CC3)CC2)ccc1NC(=O)c1cnn2ccc(N3C[C@H]4C[C@@H]3CO4)nc12 (stereo partly shown) [I-184]
28 | > 200 nM | > 200 nM | COc1cc2nn([C@H]3CC[C@H](CN4CCC5(CC4)CCN(c4cccc6c4n(C)c(=O)n6C4CCC(=O)NC4=O)CC5)CC3)cc2cc1NC(=O)c1cncc(C(C)(C)C#N)c1 (stereo partly shown) [I-185]
29 | > 200 nM | > 200 nM | Cn1c(=O)n(C2CCC(=O)NC2=O)c2cccc(N3CCC4(CCN(C[C@H]5CC[C@H](n6cc7cc(NC(=O)c8cncc(C#N)c8)c(F)cc7n6)CC5)CC4)CC3)c21 (stereo partly shown) [I-186]
30 | > 200 nM | > 200 nM | Cn1c(=O)n(C2CCC(=O)NC2=O)c2cccc(N3CCC4(CCN(C[C@H]5CC[C@H](n6cc7cc(NC(=O)c8cncc(C#N)c8)c(C(F)F)cc7n6)CC5)CC4)CC3)c21 (stereo partly shown) [I-187]
31 | < 10 nM | > 200 nM | Cn1c(=O)n(C2CCC(=O)NC2=O)c2cccc(N3CCC4(CCN(C[C@H]5CC[C@@H](n6cc(NC(=O)c7cnn8ccc(N9CC%10C[C@@H]9CO%10)nc78)c(C(F)F)n6)CC5)CC4)CC3)c21 (stereo partly shown) [I-188]
32 | 10 to 100 nM | > 200 nM | Cn1c(=O)n(C2CCC(=O)NC2=O)c2cccc(N3CCN(CC4CCC(n5cc(NC(=O)c6cnn7ccc(N8CC9C[C@@H]8CO9)nc67)c(C(F)F)n5)CC4)CC3)c21 (stereo partly shown) [I-189]
33 | 10 to 100 nM | > 200 nM | Cn1c(=O)n(C2CCC(=O)NC2=O)c2cccc(CN3CCN(C[C@H]4CC[C@H](n5cc(NC(=O)c6cnn7ccc(N8CC9C[C@@H]8CO9)nc67)c(C(F)F)n5)CC4)CC3)c21 (stereo partly shown) [I-190]
34 | 10 to 100 nM | > 200 nM | COCc1cncc(C(=O)Nc2cc3cn([C@H]4CC[C@H](CN5CCC6(CC5)CCN(c5cccc7c5n(C)c(=O)n7C5CCC(=O)NC5=O)CC6)CC4)nc3cc2OC)c1 (stereo partly shown) [I-191]
35 | > 200 nM | > 200 nM | CC([C@H]1CC[C@H](n2cc(NC(=O)c3cnn4ccc(C5CC6C[C@@H]5CO6)nc34)c(C(F)F)n2)CC1)N1CCC(OCC#Cc2cccc3c2n(C)c(=O)n3C2CCC(=O)NC2=O)CC1 (stereo partly shown) [I-192]
